The values that follow are results of earlier work, collected in publication PMC8339258 (Frontiers in Pharmacology, 2021).

In the case of `CC#CCn1c(N2CCC[C@@H](N)C2)nc2c1c(=O)n(Cc1nc(C)c3ccccc3n1)c(=O)n2C` [linagliptin, (R)-8-(3-Amino-piperidin-1-yl)-7-but-2-ynyl-3-methyl-1-(4-methyl-quinazolin-2-ylmethyl)-3,7-dihydro-purine-2,6-dione], the t1/2 (comparison in discussion, ref not given) was more than 100 h. In addition, the terminal half-life (ref Hüttner et al., 2008, Heise et al., 2009, Blech al., 2010, Sarashina et al.) is reported as 142 h.
